According to PubChem BioAssay AID330 (DTP/NCI, 2004):
Several values for one entry are separate records, joined by “and”; a condition that tells them apart may be missing. Equal entries are not always repeated. Inconclusive results and toxic doses are left out.

Test system: P388 leukemia ip, CD2F1 mice, survival T/C
Test: NCI In Vivo Anticancer Drug Screen. Data for tumor model P388 Leukemia (intraperitoneal) in CD2F1 (CDF1) mice
Details: endpoint: median survival time, higher = longer survival
In short: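 Mice carrying the transplanted tumor received test compound or vehicle. Survival was recorded in each group, and the value is the treated-group measurement divided by that of the vehicle-treated control group.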

[1] = dose: 25.0 mg/kg/injection, schedule: Q01DX005 (ip), vehicle: saline
[2] = dose: 50.0 mg/kg/injection, schedule: Q01DX005 (ip), vehicle: saline with Tween-80
[3] = dose: 60.0 mg/kg/injection, schedule: Q01DX005 (ip), vehicle: saline with Tween-80
[4] = dose: 120.0 mg/kg/injection, schedule: Q01DX005 (ip), vehicle: saline with Tween-80
[5] = dose: 240.0 mg/kg/injection, schedule: Q01DX005 (ip), vehicle: saline with Tween-80
[6] = dose: 50.0 mg/kg/injection, schedule: Q01DX005 (ip), vehicle: Klucel (hydroxypropylcellulose) (HPC)
[7] = dose: 100.0 mg/kg/injection, schedule: Q01DX005 (ip), vehicle: Klucel (hydroxypropylcellulose) (HPC)
[8] = dose: 200.0 mg/kg/injection, schedule: Q01DX005 (ip), vehicle: Klucel (hydroxypropylcellulose) (HPC)
[9] = dose: 50.0 mg/kg/injection, schedule: Q01DX009 (ip), vehicle: saline with Tween-80
[10] = dose: 100.0 mg/kg/injection, schedule: Q01DX009 (ip), vehicle: saline with Tween-80
[11] = dose: 200.0 mg/kg/injection, schedule: Q01DX009 (ip), vehicle: saline with Tween-80
[12] = dose: 100.0 mg/kg/injection, schedule: Q01DX005 (ip), vehicle: saline with Tween-80
[13] = dose: 200.0 mg/kg/injection, schedule: Q01DX005 (ip), vehicle: saline with Tween-80
[14] = dose: 100.0 mg/kg/injection, schedule: Q04DX003 (ip), vehicle: saline with Tween-80
[15] = dose: 200.0 mg/kg/injection, schedule: Q04DX003 (ip), vehicle: saline with Tween-80
[16] = dose: 400.0 mg/kg/injection, schedule: Q04DX003 (ip), vehicle: saline with Tween-80
[17] = dose: 50.0 mg/kg/injection, schedule: Q01DX005 (ip), vehicle: saline
[18] = dose: 100.0 mg/kg/injection, schedule: Q01DX005 (ip), vehicle: saline
[19] = dose: 200.0 mg/kg/injection, schedule: Q01DX005 (ip), vehicle: saline

SMILES: COC1=CC(=Nc2cc(Br)c(O)c(Br)c2)C=CC1=O
- T/C (dose: 6.25 mg/kg/injection, schedule: Q01DX005 (ip), vehicle: saline): 105 % of control
- T/C (dose: 12.5 mg/kg/injection, schedule: Q01DX005 (ip), vehicle: saline): 108 % of control
- T/C [1]: 100 % of control
- T/C [2]: 95 % of control

SMILES: CC(=O)c1ccc2oc(C(C)=O)cc2c1
- T/C (dose: 2.5 mg/kg/injection, schedule: Q01DX009 (ip), vehicle: saline with Tween-80): 97 % of control
- T/C (dose: 5.0 mg/kg/injection, schedule: Q01DX009 (ip), vehicle: saline with Tween-80): 96 % of control

SMILES: N=C(N=C(C(Cl)(Cl)Cl)C(Cl)(Cl)Cl)N=C(C(Cl)(Cl)Cl)C(Cl)(Cl)Cl
- T/C [3]: 100 % of control
- T/C [4]: 99 % of control
- T/C [5]: 104 % of control

SMILES: Cn1c(C=O)cc2c(Cl)nccc21
- T/C [6]: 103 % of control
- T/C [7]: 103 % of control
- T/C [8]: 101 % of control

SMILES: O=S1(=O)N=C(c2ccccc2)CC(c2ccccc2)N1 (stereo not drawn)
- T/C [9]: 100 % of control
- T/C [10]: 90 % of control
- T/C [11]: 90 % of control

SMILES: CCCCCCC(=O)/C=C/c1cccc([N+](=O)[O-])c1
- T/C [9]: 89 % of control
- T/C [10]: 95 % of control
- T/C [11]: 94 % of control

SMILES: CC(C)(C)C(=O)Nc1ccc2c(c1)C(=O)c1ccccc1C2=O
- T/C [2]: 100 % of control
- T/C [12]: 87 % of control
- T/C [13]: 89 % of control

SMILES: CC1=Nc2cc(N)nn2C(=O)C1
- T/C (dose: 25.0 mg/kg/injection, schedule: Q01DX005 (ip), vehicle: saline with Tween-80): 93 % of control
- T/C [2]: 96 % of control
- T/C [12]: 102 % of control
- T/C [13]: 93 % of control

SMILES: Oc1ccc(Br)cc1C(c1ccc2c(c1)OCO2)N1CCOCC1 (stereo not drawn)
- T/C [3]: 100 % of control
- T/C [4]: 101 % of control
- T/C [5]: 102 % of control

SMILES: COC(=O)C[Si](C)(C)C
- T/C [2]: 105 % of control
- T/C [12]: 98 % of control
- T/C [13]: 95 % of control

SMILES: CN(C)CC(CN(C)C)C(=O)c1ccc(OC2OC(CO)C(O)C(O)C2O)cc1 (stereo not drawn)
- T/C (dose: 60.0 mg/kg/injection, schedule: Q01DX005 (ip), vehicle: saline): 103 % of control
- T/C (dose: 120.0 mg/kg/injection, schedule: Q01DX005 (ip), vehicle: saline): 99 % of control
- T/C (dose: 240.0 mg/kg/injection, schedule: Q01DX005 (ip), vehicle: saline): 105 % of control

SMILES: O=Cc1ncccc1[N+](=O)[O-]
- T/C (dose: 50.0 mg/kg/injection, schedule: Q01DX009 (ip), vehicle: saline + Tween-80 + alcohol): 116 % of control
- T/C (dose: 100.0 mg/kg/injection, schedule: Q01DX009 (ip), vehicle: saline + Tween-80 + alcohol): 115 % of control

SMILES: Cc1[nH]c2ccc(N(C)C)cc2c(=O)c1CN(CCO)CCO
- T/C [2]: 108 % of control
- T/C [12]: 100 % of control
- T/C [13]: 100 % of control

SMILES: O=C1/C(=C/c2ccc(O)cc2)Oc2cc(O)ccc21
- T/C (dose: 100.0 mg/kg/injection, schedule: Q01DX001 (ip), vehicle: saline with Tween-80): 97 % of control
- T/C (dose: 200.0 mg/kg/injection, schedule: Q01DX001 (ip), vehicle: saline with Tween-80): 91 % of control
- T/C (dose: 400.0 mg/kg/injection, schedule: Q01DX001 (ip), vehicle: saline with Tween-80): 92 % of control

SMILES: N#CC(=Nc1ccc2ccccc2c1)C1=C(O)c2ccccc2C1=O
- T/C [6]: 101 % of control
- T/C [7]: 101 % of control
- T/C [8]: 110 % of control

SMILES: COc1ccc(/C=C/C(C)=N/NC(N)=S)cc1
- T/C (dose: 6.0 mg/kg/injection, schedule: Q01DX005 (ip), vehicle: Klucel + Tween-80): 113 % of control
- T/C (dose: 12.0 mg/kg/injection, schedule: Q01DX005 (ip), vehicle: Klucel + Tween-80): 104 % of control

SMILES: CC1(C)CC(Nc2ccccc2)=CC(N2CCOCC2)=N1
- T/C [6]: 103 % of control
- T/C [7]: 100 % of control

SMILES: O=[N+]([O-])c1cccc(S(=O)(=O)N/N=C/c2cc([N+](=O)[O-])cc(I)c2O)c1
- T/C [3]: 103 % of control
- T/C [4]: 95 % of control
- T/C [5]: 111 % of control

SMILES: COC(=O)/C=C1\C=CC=CN1C
- T/C [9]: 105 % of control
- T/C [10]: 106 % of control
- T/C [11]: 106 % of control

SMILES: COC(=O)C/C(=C\c1cn(C(C)=O)c2ccccc12)[N+](=O)[O-]
- T/C (dose: 6.25 mg/kg/injection, schedule: Q01DX005 (ip), vehicle: Klucel (hydroxypropylcellulose) (HPC)): 89 % of control
- T/C (dose: 12.5 mg/kg/injection, schedule: Q01DX005 (ip), vehicle: Klucel (hydroxypropylcellulose) (HPC)): 98 % of control
- T/C (dose: 25.0 mg/kg/injection, schedule: Q01DX005 (ip), vehicle: Klucel (hydroxypropylcellulose) (HPC)): 91 % of control

SMILES: Cc1nc2c([N+](=O)[O-])c(N3CCOCC3)c([N+](=O)[O-])cc2[nH]1
- T/C [14]: 98 % of control
- T/C [15]: 103 % of control
- T/C [16]: 101 % of control

SMILES: CCCCCCCCC1(OCCCS(=O)(=O)O)COc2ccccc2OCCOCCOc2ccccc2OC1
- T/C (dose: 30.0 mg/kg/injection, schedule: Q01DX005 (ip), vehicle: saline with Tween-80): 96 % of control
- T/C [3]: 94 % of control

SMILES: CN1C(=O)C2CCC1n1c(=O)n(-c3ccccc3)c(=O)n12 (stereo not drawn)
- T/C (dose: 100.0 mg/kg/injection, schedule: Q01DX001 (ip), vehicle: Klucel (hydroxypropylcellulose) (HPC)): 97 % of control
- T/C (dose: 200.0 mg/kg/injection, schedule: Q01DX001 (ip), vehicle: Klucel (hydroxypropylcellulose) (HPC)): 99 % of control
- T/C (dose: 400.0 mg/kg/injection, schedule: Q01DX001 (ip), vehicle: Klucel (hydroxypropylcellulose) (HPC)): 94 % of control

SMILES: CC(=S)SC1(C)SC(C)(SC(C)=S)S1 (stereo not drawn)
- T/C (dose: 25.0 mg/kg/injection, schedule: Q01DX009 (ip), vehicle: saline with Tween-80): 91 % of control
- T/C [9]: 94 % of control
- T/C [10]: 94 % of control

SMILES: O=C1CSC(c2cccc(F)c2)N1CCN1C(=O)CSC1c1cccc(F)c1 (stereo not drawn)
- T/C [2]: 95 % of control
- T/C [12]: 98 % of control
- T/C [13]: 106 % of control

SMILES: Cn1c(/C=C/CO)c(CO)c2c1C(=O)C=C(N1CC1)C2=O
- T/C (dose: 1.5 mg/kg/injection, schedule: Q01DX005 (ip), vehicle: saline): 106 % of control
- T/C (dose: 3.0 mg/kg/injection, schedule: Q01DX005 (ip), vehicle: saline): 94 % of control

SMILES: COc1ccc(-c2cc(=O)c3c(O)cc(OC)cc3o2)cc1
- T/C [14]: 95 % of control
- T/C [15]: 90 % of control
- T/C [16]: 90 % of control

SMILES: Cc1ccc(NP(=S)(Nc2ccc(C)cc2C)Nc2ccc(C)cc2C)c(C)c1
- T/C (dose: 60.0 mg/kg/injection, schedule: Q01DX005 (ip), vehicle: Klucel (hydroxypropylcellulose) (HPC)): 97 % of control
- T/C (dose: 120.0 mg/kg/injection, schedule: Q01DX005 (ip), vehicle: Klucel (hydroxypropylcellulose) (HPC)): 100 % of control
- T/C (dose: 240.0 mg/kg/injection, schedule: Q01DX005 (ip), vehicle: Klucel (hydroxypropylcellulose) (HPC)): 100 % of control

SMILES: CC1(C)N=C(N)N=C(N)N1c1ccc(OCCNC(=O)Nc2ccc(S(=O)(=O)F)cc2)c(Cl)c1
- T/C (dose: 50.0 mg/kg/injection, schedule: Q04DX003 (ip), vehicle: saline): 120 % of control

SMILES: COP(=O)(CC(=O)CCCCCOC1CCCCO1)OC (stereo not drawn)
- T/C [17]: 100 % of control
- T/C [18]: 100 % of control
- T/C [19]: 99 % of control

SMILES: CC[CH2][Sn]([F])([F])[CH2]CC
- T/C (dose: 0.78 mg/kg/injection, schedule: Q04DX003 (ip), vehicle: saline): 105 % of control
- T/C (dose: 1.56 mg/kg/injection, schedule: Q04DX003 (ip), vehicle: saline): 100 % of control and 114 % of control
- T/C (dose: 3.12 mg/kg/injection, schedule: Q04DX003 (ip), vehicle: saline): 102 % of control
- T/C (dose: 6.25 mg/kg/injection, schedule: Q04DX003 (ip), vehicle: saline): 105 % of control
- T/C (dose: 12.5 mg/kg/injection, schedule: Q04DX003 (ip), vehicle: saline): 114 % of control

SMILES: CCCCN(CCCC)C(=O)C(C)OC(C)=O (stereo not drawn)
- T/C [1]: 95 % of control
- T/C [17]: 95 % of control
- T/C [18]: 108 % of control
- T/C [19]: 105 % of control

SMILES: Cc1ccc(S(=O)(=O)NC(=O)OC23COCN2COC3)cc1
- T/C [9]: 117 % of control
- T/C [10]: 122 % of control

SMILES: Cc1ccc(N2CC(O)CN(c3ccc(C)cc3)CC(O)C2)cc1 (stereo not drawn)
- T/C [3]: 97 % of control
- T/C [4]: 97 % of control
- T/C [5]: 94 % of control
